These results are taken from patent publication US20140113898A1, “BISARYLSULFONE AND DIALKYLARYLSULFONE COMPOUNDS AS CALCIUM CHANNEL BLOCKERS” (Zalicus Pharmaceuticals Ltd., priority 2010, published 2014).

Where two headings read alike, the source gives them in different places.

Common to all, as to assay type: cell-based
The target in one experiment is T1, CaV2.2 (Homo sapiens, UniProt Q00975).
T1 construct: expressed in transfected cells; host or cells: unnamed doxycycline-inducible cell line
Briefly: High-throughput CaV2.2/Kir2.3 FLIPR fluorescent assay. Conditions: Fluo-4 FLIPR, closed or inactivated state not stated, read-out: FLIPR data CaV2.2. The method, boiled down: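 IC50 was derived by logistic fitting of the FLIPR Fluo-4 signal recorded over 3 min after a 130 mM KCl stimulus. Before stimulation, cells (channel expression induced with doxycycline, 29 °C on assay day) were kept in pH 7.4 buffer with 2 mM KCl for the closed-state format or 12.5 mM KCl for the inactivated-state format.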

The target of the next experiment is T2, CaV3.2 (Homo sapiens, UniProt O95180).
T2 construct: expressed in transfected cells; host or cells: unnamed doxycycline-inducible cell line
Briefly: High-throughput CaV3.2/Kir2.3 T-type FLIPR fluorescent assay. Conditions: Fluo-4 FLIPR, closed or inactivated state not stated. The method, boiled down: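 Doxycycline-induced cells loaded with Fluo-4, preincubated 20 min at 29°C with compound in 2 mM KCl (closed-state) or 7.6 mM KCl (inactivated-state) buffer, pH 7.4. Calcium entry triggered by 12 mM or 14.5 mM KCl respectively; fluorescence read 3 min by FLIPR, IC50 from logistic fit.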

A further experiment has as its target T3, CaV3.1 (Homo sapiens, UniProt O43497).
T3 construct: expressed in transfected cells; host or cells: unnamed doxycycline-inducible cell line
As to the kind of experiment: High-throughput CaV3.1 T-type FLIPR fluorescent assay. The note with it: Fluo-4 FLIPR. As to the method:
Cells were plated in 384-well, clear-bottom, black-walled, poly-D-lysine coated plates (Becton Dickinson, Franklin Lake, N.J.) 2 days prior to use in the FLIPR assay. 100 μL of cells (2.0×10^6 cell/mL) containing doxycyline (Sigma-Aldrich, 1.5 μg/mL; to induce channel expression) were added to each well using a Multidrop (Thermo Scientific, Waltham, Mass.) and were maintained in 5% CO2 incubator at 37° C. On the morning of the assay, cells were transferred to a 5% CO2 incubator at 29° C.
Cells were washed with a wash buffer containing (in mM): 118 NaCl, 18.4 HEPES, 11.7 D-glucose, 0.05 CaCl2, 0.5 MgSO4, 1 KCl, and 1.2 KH2PO4, with the pH adjusted to 7.2 with NaOH. 4.4 μM of the fluorescent indicator dye, Fluo-4 (Invitrogen), prepared in pluronic acid
(Sigma-Aldrich), was loaded into the wells and incubated for 45 minutes at 29° C. in 5% CO2. Cells were then rinsed with the following low Ca^2+ buffer (in mM): 0.34 Na2HPO4, 4.2 NaHCO3, 0.44 KH2PO4, 0.41 MgSO4, 0.49 MgCl2-6H2O, 20 HEPES, 5.5 D-Glucose, 137 NaCl, 5.3 KCl, and 0.001 CaCl2, with 0.1% BSA and the pH adjusted to 7.2 with NaOH. Concentration-dependent response curves were generated from 5 mM stock solutions prepared in DMSO (Sigma-Aldrich) and diluted in the buffer containing low Ca^2+ and incubated for 20 minutes at 29° C. in 5% CO2. Calcium entry was evoked with an addition of (in mM): 0.34 Na2HPO4, 4.2 NaHCO3, 0.44 KH2PO4, 0.41 MgSO4, 0.49 MgCl2-6H2O, 20 HEPES, 5.5 D-Glucose, 137 NaCl, 5.3 KCl, and 6 CaCl2, with 0.1% BSA and the pH adjusted to 7.2 with NaOH. A change in the Fluo-4 fluorescence signal was assessed using FLIPR^TETRA™ instrument (Molecular Devices, Sunnyvale, Calif.) for 3 minutes following the elevation of extracellular KCl using an illumination wavelength of 470-495 nm with emissions recorded at 515-575 nm.
Concentration-dependent response curves were obtained by comparing the fluorescence signal in the presence of compound and fitted with a logistic function (1) to obtain the concentration that inhibited 50% (IC50) of the RLU signal using OriginPro v.7.5 software (OriginLab, Northampton, Mass.).
To assess the quality of the FLIPR assays the Z-factor (2) was used to quantify the suitability of the assay conditions using the following equation: […]
Data are expressed as mean and standard deviation (SD).

T2 sequence (O95180 whole entry): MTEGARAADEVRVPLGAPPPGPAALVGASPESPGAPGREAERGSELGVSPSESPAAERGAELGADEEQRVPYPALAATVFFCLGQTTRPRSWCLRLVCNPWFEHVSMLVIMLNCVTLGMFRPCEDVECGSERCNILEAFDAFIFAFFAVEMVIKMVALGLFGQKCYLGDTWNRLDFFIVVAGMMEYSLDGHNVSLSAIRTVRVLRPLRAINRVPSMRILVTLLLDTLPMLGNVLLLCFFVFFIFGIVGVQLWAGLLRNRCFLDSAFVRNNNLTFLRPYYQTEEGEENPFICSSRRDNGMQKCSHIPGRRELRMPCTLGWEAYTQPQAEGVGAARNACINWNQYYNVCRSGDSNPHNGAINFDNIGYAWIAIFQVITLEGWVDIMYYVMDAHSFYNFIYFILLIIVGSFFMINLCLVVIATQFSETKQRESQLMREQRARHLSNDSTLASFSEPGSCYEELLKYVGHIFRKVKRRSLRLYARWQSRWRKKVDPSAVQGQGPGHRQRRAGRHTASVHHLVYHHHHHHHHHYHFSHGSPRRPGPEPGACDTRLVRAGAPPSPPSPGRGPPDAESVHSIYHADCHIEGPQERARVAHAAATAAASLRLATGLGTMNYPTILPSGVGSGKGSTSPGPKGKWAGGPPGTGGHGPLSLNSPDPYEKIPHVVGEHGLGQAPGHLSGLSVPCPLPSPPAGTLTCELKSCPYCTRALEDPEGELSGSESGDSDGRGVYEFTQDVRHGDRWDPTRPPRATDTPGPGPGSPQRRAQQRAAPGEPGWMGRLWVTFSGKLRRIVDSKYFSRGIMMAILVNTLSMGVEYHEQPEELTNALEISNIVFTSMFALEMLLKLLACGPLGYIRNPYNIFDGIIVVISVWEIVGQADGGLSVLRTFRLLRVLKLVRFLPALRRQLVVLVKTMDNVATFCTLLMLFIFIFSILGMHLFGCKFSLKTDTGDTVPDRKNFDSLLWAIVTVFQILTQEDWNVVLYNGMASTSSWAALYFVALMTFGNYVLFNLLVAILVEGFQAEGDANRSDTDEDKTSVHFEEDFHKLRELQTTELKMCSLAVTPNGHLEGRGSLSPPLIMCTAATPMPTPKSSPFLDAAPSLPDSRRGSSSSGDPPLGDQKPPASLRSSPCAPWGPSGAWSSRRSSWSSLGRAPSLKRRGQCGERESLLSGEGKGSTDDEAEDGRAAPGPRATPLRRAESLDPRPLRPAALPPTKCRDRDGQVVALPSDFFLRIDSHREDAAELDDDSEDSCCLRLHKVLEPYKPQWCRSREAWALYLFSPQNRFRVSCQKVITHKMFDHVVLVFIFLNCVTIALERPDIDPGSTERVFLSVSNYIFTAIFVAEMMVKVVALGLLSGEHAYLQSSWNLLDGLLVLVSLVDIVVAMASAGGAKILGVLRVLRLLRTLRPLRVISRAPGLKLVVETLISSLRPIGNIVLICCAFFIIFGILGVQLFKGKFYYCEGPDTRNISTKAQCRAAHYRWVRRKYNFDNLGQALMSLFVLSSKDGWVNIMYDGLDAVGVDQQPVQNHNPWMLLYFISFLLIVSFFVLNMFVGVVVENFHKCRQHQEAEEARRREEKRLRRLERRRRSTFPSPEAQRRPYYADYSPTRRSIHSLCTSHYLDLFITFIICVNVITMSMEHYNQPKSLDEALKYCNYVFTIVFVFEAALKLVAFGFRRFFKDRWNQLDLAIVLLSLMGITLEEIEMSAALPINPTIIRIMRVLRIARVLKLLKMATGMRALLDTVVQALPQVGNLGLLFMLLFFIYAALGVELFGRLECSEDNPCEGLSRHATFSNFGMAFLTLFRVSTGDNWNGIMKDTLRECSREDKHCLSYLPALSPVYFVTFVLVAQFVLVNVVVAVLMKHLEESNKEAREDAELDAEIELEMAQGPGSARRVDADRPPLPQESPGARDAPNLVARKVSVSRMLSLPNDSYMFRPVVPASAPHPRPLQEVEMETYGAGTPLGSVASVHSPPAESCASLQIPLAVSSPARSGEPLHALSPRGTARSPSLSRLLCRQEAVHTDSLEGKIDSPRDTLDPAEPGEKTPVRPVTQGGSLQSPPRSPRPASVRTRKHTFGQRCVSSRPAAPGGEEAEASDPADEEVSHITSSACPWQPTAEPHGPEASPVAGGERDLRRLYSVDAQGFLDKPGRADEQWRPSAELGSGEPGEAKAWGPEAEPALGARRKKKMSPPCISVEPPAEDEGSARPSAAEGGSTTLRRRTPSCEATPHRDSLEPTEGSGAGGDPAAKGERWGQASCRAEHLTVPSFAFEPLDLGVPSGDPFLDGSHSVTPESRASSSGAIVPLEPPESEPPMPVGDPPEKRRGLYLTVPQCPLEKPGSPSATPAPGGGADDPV
T3 sequence (O43497 whole entry): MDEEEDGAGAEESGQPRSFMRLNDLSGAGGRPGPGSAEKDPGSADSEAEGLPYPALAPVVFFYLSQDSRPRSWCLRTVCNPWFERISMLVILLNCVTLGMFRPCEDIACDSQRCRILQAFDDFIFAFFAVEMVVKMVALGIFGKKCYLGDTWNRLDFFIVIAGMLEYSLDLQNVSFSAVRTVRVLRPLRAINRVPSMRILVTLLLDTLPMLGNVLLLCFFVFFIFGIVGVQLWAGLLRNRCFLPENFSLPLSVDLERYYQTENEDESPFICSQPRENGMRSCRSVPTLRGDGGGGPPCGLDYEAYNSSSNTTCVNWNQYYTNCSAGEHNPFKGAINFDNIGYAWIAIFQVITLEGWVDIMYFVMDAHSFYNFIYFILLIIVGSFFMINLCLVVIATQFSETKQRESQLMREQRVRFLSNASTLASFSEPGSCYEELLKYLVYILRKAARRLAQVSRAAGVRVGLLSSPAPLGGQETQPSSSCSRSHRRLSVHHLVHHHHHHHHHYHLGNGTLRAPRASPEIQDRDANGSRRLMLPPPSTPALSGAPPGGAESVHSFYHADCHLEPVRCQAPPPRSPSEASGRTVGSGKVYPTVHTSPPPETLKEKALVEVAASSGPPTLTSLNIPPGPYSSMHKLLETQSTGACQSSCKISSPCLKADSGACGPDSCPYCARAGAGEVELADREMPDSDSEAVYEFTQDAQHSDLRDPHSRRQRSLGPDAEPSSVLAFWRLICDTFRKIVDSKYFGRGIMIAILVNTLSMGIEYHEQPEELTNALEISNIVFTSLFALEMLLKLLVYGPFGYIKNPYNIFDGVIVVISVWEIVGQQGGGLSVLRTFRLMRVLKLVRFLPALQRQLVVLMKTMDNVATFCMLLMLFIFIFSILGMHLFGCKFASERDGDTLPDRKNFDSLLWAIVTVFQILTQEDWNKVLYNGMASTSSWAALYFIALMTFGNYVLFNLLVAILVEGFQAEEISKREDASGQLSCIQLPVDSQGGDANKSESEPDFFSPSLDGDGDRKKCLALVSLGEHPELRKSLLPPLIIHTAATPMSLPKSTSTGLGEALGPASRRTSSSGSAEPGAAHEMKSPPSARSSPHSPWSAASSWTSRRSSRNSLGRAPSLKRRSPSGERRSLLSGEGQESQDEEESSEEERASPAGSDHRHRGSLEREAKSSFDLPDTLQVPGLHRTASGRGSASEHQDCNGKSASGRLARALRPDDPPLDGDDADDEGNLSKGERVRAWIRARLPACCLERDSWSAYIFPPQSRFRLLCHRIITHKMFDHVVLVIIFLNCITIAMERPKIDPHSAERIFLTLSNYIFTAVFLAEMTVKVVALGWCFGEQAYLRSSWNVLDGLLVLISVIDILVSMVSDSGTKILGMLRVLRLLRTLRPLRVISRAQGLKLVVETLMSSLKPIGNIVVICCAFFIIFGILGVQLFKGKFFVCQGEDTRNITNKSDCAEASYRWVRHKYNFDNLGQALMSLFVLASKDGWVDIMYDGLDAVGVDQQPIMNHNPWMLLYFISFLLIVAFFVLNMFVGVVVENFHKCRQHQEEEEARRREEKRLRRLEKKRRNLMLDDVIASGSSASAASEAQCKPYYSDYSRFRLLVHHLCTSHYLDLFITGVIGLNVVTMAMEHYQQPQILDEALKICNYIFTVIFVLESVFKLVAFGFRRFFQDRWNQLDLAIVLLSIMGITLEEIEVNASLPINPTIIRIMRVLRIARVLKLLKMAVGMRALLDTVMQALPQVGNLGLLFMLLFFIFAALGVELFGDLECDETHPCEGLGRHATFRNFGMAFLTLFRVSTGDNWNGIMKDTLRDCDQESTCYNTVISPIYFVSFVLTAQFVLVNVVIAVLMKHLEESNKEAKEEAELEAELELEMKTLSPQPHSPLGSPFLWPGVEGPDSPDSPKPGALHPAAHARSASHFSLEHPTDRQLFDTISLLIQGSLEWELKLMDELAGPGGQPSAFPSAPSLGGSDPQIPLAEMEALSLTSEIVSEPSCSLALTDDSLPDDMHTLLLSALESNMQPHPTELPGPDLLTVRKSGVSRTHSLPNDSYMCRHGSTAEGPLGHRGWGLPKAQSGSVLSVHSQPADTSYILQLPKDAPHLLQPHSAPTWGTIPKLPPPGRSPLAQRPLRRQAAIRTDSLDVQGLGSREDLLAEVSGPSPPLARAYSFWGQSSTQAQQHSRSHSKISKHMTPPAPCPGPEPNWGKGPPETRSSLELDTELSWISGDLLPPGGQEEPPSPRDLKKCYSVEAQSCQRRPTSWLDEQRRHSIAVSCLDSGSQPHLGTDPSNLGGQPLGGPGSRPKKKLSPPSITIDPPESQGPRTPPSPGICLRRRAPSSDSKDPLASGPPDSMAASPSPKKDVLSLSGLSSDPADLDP

`CC(C)(C(=O)NCc1ccc(S(=O)(=O)c2cccc(C(F)(F)F)c2)cc1)S(=O)(=O)c1cccc(C(F)(F)F)c1` [Compound 225, 2-methyl-2-((3-(trifluoromethyl)phenyl)sulfonyl)-N-(4-((3-(trifluoromethyl)phenyl)sulfonyl)benzyl)propanamide]: the IC50 on CaV2.2 (Table 5) came to 100 nM; against CaV3.2 (Table 5), 630 nM; against CaV3.1 (Table 5), 1410 nM.
For the compound `O=C(NCc1ccc(S(=O)(=O)c2cccc(C(F)(F)F)c2)cn1)[C@H]1C[C@@H](C2CCCCC2)CN1` [Compound 107, (2R,4S)-4-cyclohexyl-N-((5-((3-(trifluoromethyl)phenyl)sulfonyl)pyridin-2-yl)methyl)pyrrolidine-2-carboxamide], the IC50 was 450 nM on CaV2.2 (Table 4), 2090 nM on CaV3.2 (Table 4) and 6980 nM against CaV3.1 (Table 4).
Consider `CS(=O)(=O)c1cc(C(=O)NCc2ccc(S(=O)(=O)c3cccc(C(F)(F)F)c3)cc2)cc(C(F)(F)F)n1` [Compound 10, 2-(methylsulfonyl)-6-(trifluoromethyl)-N-(4-((3-(trifluoromethyl)phenyl)sulfonyl)benzyl)isonicotinamide], for which the IC50 on CaV2.2 (Table 4) came to 690 nM; at CaV3.2 (Table 4) it was 980 nM; on CaV3.1 (Table 4), 1970 nM.
For `O=C(NCc1cccc(S(=O)(=O)c2cccc(C(F)(F)F)c2)c1)c1ccc(Cl)c(F)c1` [Compound 17, 4-chloro-3-fluoro-N-(3-((3-(trifluoromethyl)phenyl)sulfonyl)benzyl)benzamide], in that order: 140 nM, 940 nM and 1630 nM.
As for `O=C(NCc1ccc(S(=O)(=O)c2cccc(C(F)(F)F)c2)cn1)c1ccc(F)c(Cl)c1` [Compound 104, 3-chloro-4-fluoro-N-((5-((3-(trifluoromethyl)phenyl)sulfonyl)pyridin-2-yl)methyl)benzamide], the figures for the IC50 at CaV2.2 (Table 4), at CaV3.2 (Table 4) and against CaV3.1 (Table 4) were 600 nM, 880 nM and 1540 nM, respectively.
For `O=C(NCc1cccc(S(=O)(=O)c2cccc(C(F)(F)F)c2)c1)c1ccc(C(F)(F)F)nc1` [Compound 19, 6-(trifluoromethyl)-N-(3-((3-(trifluoromethyl)phenyl)sulfonyl)benzyl)nicotinamide], in that order: 490 nM, 970 nM and 2100 nM.
For `O=C(NCc1cccc(S(=O)(=O)c2cccc(C(F)(F)F)c2)c1)c1ccc(C(F)(F)F)cn1` [Compound 20, 5-(trifluoromethyl)-N-(3-((3-(trifluoromethyl)phenyl)sulfonyl)benzyl)picolinamide], the results for the IC50 at CaV2.2 (Table 4), at CaV3.2 (Table 4) and against CaV3.1 (Table 4) were 230 nM, 930 nM and 1810 nM, respectively.
Consider `CC(C)(C(=O)Nc1ccc(Oc2ccc(F)c(C(F)(F)F)c2)nc1)S(=O)(=O)c1cccc(OC(F)(F)F)c1` [Compound 119, N-(6-(4-fluoro-3-(trifluoromethyl)phenoxy)pyridin-3-yl)-2-methyl-2-((3-(trifluoromethoxy)phenyl)sulfonyl)propanamide], for which the IC50 worked out at 200 nM on CaV2.2 (Table 5), 4310 nM at CaV3.2 (Table 5) and 5800 nM against CaV3.1 (Table 5).
For the compound `CS(=O)(=O)c1cc(C(F)(F)F)ccc1C(=O)NCc1ccccc1S(=O)(=O)c1cccc(C(F)(F)F)c1` [Compound 47, 2-(methylsulfonyl)-4-(trifluoromethyl)-N-(2-((3-(trifluoromethyl)phenyl)sulfonyl)benzyl)benzamide], the figures for the IC50 at CaV2.2 (Table 4), against CaV3.2 (Table 4) and against CaV3.1 (Table 4) were 590 nM, 2130 nM and 270 nM, respectively.
Consider `CC(C)(C(=O)N1CCC(c2ccc(C(F)(F)F)cc2)CC1)S(=O)(=O)c1cccc(C(F)(F)F)c1` [Compound 136, 2-methyl-1-(4-(4-(trifluoromethyl)phenyl)piperidin-1-yl)-2-((3-(trifluoromethyl)phenyl)sulfonyl)propan-1-one], for which the IC50 on CaV2.2 (Table 5) came out at 390 nM; at CaV3.2 (Table 5), 2440 nM; against CaV3.1 (Table 5) it was 4400 nM.
As to `O=C(NCc1ccc(S(=O)(=O)c2cccc(C(F)(F)F)c2)cc1)c1cn2cc(C(F)(F)F)ccc2n1` [Compound 13, 6-(trifluoromethyl)-N-(4-((3-(trifluoromethyl)phenyl)sulfonyl)benzyl)imidazo[1,2-a]pyridine-2-carboxamide], the IC50 at CaV2.2 (Table 4) is 300 nM; at CaV3.2 (Table 4), 740 nM; on CaV3.1 (Table 4), 2020 nM.
As for `O=C(NCc1ccc(S(=O)(=O)c2cccc(C(F)(F)F)c2)cc1)c1ccnn1CC(F)(F)F` [Compound 12, 1-(2,2,2-trifluoroethyl)-N-(4-((3-(trifluoromethyl)phenyl)sulfonyl)benzyl)-1H-pyrazole-5-carboxamide], the IC50 worked out at 630 nM at CaV2.2 (Table 4), 590 nM against CaV3.2 (Table 4) and 2290 nM on CaV3.1 (Table 4).
Regarding `Cn1nc(C(F)(F)F)cc1C(=O)NCc1ccccc1S(=O)(=O)c1cccc(C(F)(F)F)c1` [Compound 41, 1-methyl-3-(trifluoromethyl)-N-(2-((3-(trifluoromethyl)phenyl)sulfonyl)benzyl)-1H-pyrazole-5-carboxamide], the IC50 at CaV2.2 (Table 4) worked out at 380 nM; against CaV3.2 (Table 4) it was 1390 nM; against CaV3.1 (Table 4) it was 920 nM.
For `CS(=O)(=O)c1cc(C(=O)NCc2ccc(S(=O)(=O)c3cccc(C(F)(F)F)c3)cn2)cc(C(F)(F)F)n1` [Compound 94, 2-(methylsulfonyl)-6-(trifluoromethyl)-N-((5-((3-(trifluoromethyl)phenyl)sulfonyl)pyridin-2-yl)methyl)isonicotinamide], the values for the IC50 at CaV2.2 (Table 4), on CaV3.2 (Table 4) and against CaV3.1 (Table 4) were 820 nM, 1450 nM and 1630 nM, respectively.
On to `O=C(NCc1ccc(S(=O)(=O)c2cccc(C(F)(F)F)c2)cn1)c1ccc(Cl)c(F)c1` [Compound 88, 4-chloro-3-fluoro-N-((5-((3-(trifluoromethyl)phenyl)sulfonyl)pyridin-2-yl)methyl)benzamide], for which the values for the IC50 on CaV2.2 (Table 4), against CaV3.2 (Table 4) and on CaV3.1 (Table 4) were 810 nM, 810 nM and 900 nM, respectively.
As to `CC(C)(CNC(=O)C(C)(C)S(=O)(=O)c1cccc(C(F)(F)F)c1)S(=O)(=O)c1cccc(C(F)(F)F)c1` [Compound 149, 2-methyl-N-(2-methyl-2-((3-(trifluoromethyl)phenyl)sulfonyl)propyl)-2-((3-(trifluoromethyl)phenyl)sulfonyl)propanamide], the IC50 is 460 nM on CaV2.2 (Table 5), 2860 nM on CaV3.2 (Table 5) and 3850 nM at CaV3.1 (Table 5).
As to `O=C(NCc1ccccc1S(=O)(=O)c1cccc(C(F)(F)F)c1)c1cc(F)cc(Cl)c1` [Compound 37, 3-chloro-5-fluoro-N-(2-((3-(trifluoromethyl)phenyl)sulfonyl)benzyl)benzamide], the IC50 at CaV2.2 (Table 4) was found to be 680 nM; against CaV3.2 (Table 4) it was 1610 nM; at CaV3.1 (Table 4), 1420 nM.
Turning to `O=C(NCc1cccc(S(=O)(=O)c2cccc(C(F)(F)F)c2)c1)c1cn2cc(C(F)(F)F)ccc2n1` [Compound 32, 6-(trifluoromethyl)-N-(3-((3-(trifluoromethyl)phenyl)sulfonyl)benzyl)imidazo[1,2-a]pyridine-2-carboxamide], the IC50 on CaV2.2 (Table 4) came to 160 nM; against CaV3.2 (Table 4) it was 370 nM; against CaV3.1 (Table 4), 1400 nM.
For the compound `CC(C)(C(=O)N1CCN(c2cc(Cl)cc(Cl)c2)CC1)S(=O)(=O)c1cccc(C(F)(F)F)c1` [Compound 134, 1-(4-(3,5-dichlorophenyl)piperazin-1-yl)-2-methyl-2-((3-(trifluoromethyl)phenyl)sulfonyl)propan-1-one], the IC50 came out at 1160 nM on CaV2.2 (Table 5), 7580 nM on CaV3.2 (Table 5) and 8690 nM against CaV3.1 (Table 5).
